Where “and” joins values, the source holds several entries; their conditions need not be identical. Equal entries are not always repeated. Where two headings read alike, the source gives them in different places.
Key:
TAMs = assay: Ki67 FACS of TAMs induced by CSF1; assay type: cell-based, mouse
Protocol: Flow cytometry analyses were performed using antibodies listed in Supplementary Table 8. For cell surface markers, mouse TAM suspensions were stained with mouse APC-CD45, FITC-CD11b, PE-F4/80 or APC-F4/80, CD68, and PE-CD206 antibodies for 15 min on ice. For Ki67 staining, cells were fixed in 4% paraformaldehyde and stained with FITC-Ki67. Isotype matching antibody served as the negative control. Flow cytometry was performed on a FACSCalibur (BD Biosciences). Data were analyzed with BD CellQuest Pro software version 5.1.
Supplementary Figure 14. NHWD-870 and BRD4 deletion partially inhibite d prolifera tion of TAMs […]
(a) CD45+CD11b+F4/80 + TAMs in the orthotopic B16 melanoma model were harvested from tumors. Shown are representative FACS plots of TAMs. (b,c) Representative FACS plots (b) and quantification (c) of Ki67+ macrophages treated with 50 ng/ml CSF1, and DMSO or 25 or 50 nM NHWD-870. […]
TAMs induced by CSF1. (a-c) CD11b+F4/80+ macrophages in the orthotopic B16F10 melanoma model were harvested from tumor tissues. Shown are representative CD45+, CD11b+, F4/80+ FACS plots (a) and quantification of the percentage of Ki67+ cells after treatment with DMSO or NHWD-870 dependent on CSF1 stimulation (b,c). (d-g) FACS plots and quantification of the percentage of Ki67+ cells after CRISPR/Cas9-mediated BRD4 knockout (d,e) and c-MYC knockout (f,g) in CD11b+F4/80+ macrophages. CSF1 is added at the indicated concentration.
Please also see response to comment # 4 about our 2D assays, in which we used colony number to quantify the number of TAMs.
NHWD-870 treatment and the main differences are colony size.
6. For comparison purposes, it would be a good idea to compare the direct effect of NHWD-870 on in […]
marrow derived macrophage proliferation and gene expression in vitro). […]

ES-2 cells = assay: MTT cell growth assay, ES-2; assay type: cell-based, human; details: 5 days
Protocol: Fig. 2 NHWD-870 inhibited BRD4 phosphorylation and c-MYC expression, and suppressed cell growth. a Representative western blot analysis of p-BRD4 (s484/488), BRD4, c-MYC, and GAPDH after treatment of MDA-MB231, SUM159, A2780 ES-2, and H526 cells with JQ-1 or NHWD-870 at the indicated concentrations for 24 h. GAPDH served as the loading control. Selected from three independent experiments. b MTT assays of H526, A2780, ES-2, and MDA-MB231 cells treated with JQ-1 or NHWD-870 at the indicated concentrations for 5 days. Data are presented as mean ± SEM from three independent experiments. c, d Clonogenic assays of H526, A2780, ES-2 and MDA-MB231 cells treated with 250 nM JQ-1 or NHWD-870 for 5 days. Shown are representative images (c) and quantification of colonies (d). […] Shown are representative images (e) and quantification of relative colony sizes (f). Scale bar, 50 μm. Data are presented as mean ± SEM from five independent experiments. p values were calculated using two-tailed, unpaired t tests in this figure. **p < 0.01; ***p < 0.001. Source data are provided as a Source Data file.
37℃, 5% CO2. […]

[1] = Concentration in lungs and tumors of H526 xenograft model; assay type: in vivo, mouse; details: for concentration at 8 h / concentration at 24 h: female, BALB/c nude, mouse, oral
Excerpt: Supplementary Figure 7. Pharmacokinetic profile of NHWD-870 using mouse and rat models. […]
98615821 on day 21. These mice were administrated the indicated drug daily for 21 days. Data are represented as mean ± SEM of 3 independent experiments. Source data are provided as a Source Data file. […]
9. In vivo pharmacokinetics study. Mouse and SD rat models were used to evaluate pharmacokinetic property of NHWD-870. NHWD-870 was administrated […]
Concentration of drugs in plasma, lung and tumor tissues were measured for the indicated time. […]

Cc1nnn(C)c1-c1cnc2c3c4cnn(C)c4ccc3n([C@H](c3ccccc3)C3CCOCC3)c2c1 [NHWD-870]
decrease of TAMs proliferation (Ki67 FACS) (TAMs; TAMs induced by CSF1): ~ 50%
fold decrease of CSF1 induced growth of macrophages (TAMs; direct treatment of TAMs in 2D growth assays): < 2 fold
MTT assay, relative cell number (ES-2 cells; ES-2, 0.1 nM): 0.993 and 0.983 and 0.961
MTT assay, relative cell number (ES-2 cells; ES-2, 1 nM): 0.911 and 0.921 and 0.934
MTT assay, relative cell number (ES-2 cells; ES-2, 10 nM): 0.355 and 0.301 and 0.382
MTT assay, relative cell number (ES-2 cells; ES-2, 500 nM): 0
MTT assay, relative cell number (ES-2 cells; ES-2, 1000 nM): 0
MTT assay, relative cell number (ES-2 cells; ES-2, 5000 nM): 0
MTT assay, relative cell number (ES-2 cells; ES-2, 10000 nM): 0
Analyte Concentration in Tumor Homogenate ([1]; Group 2, 3 mg/kg QD, 8h, individual animals): 51.4 ng/mL and 12.9 ng/mL and 16.6 ng/mL
Analyte Concentration in Lung Homogenate ([1]; Group 2, 3 mg/kg QD, 8h, individual animals, LLOQ 1 ng/mL): 13.8 ng/mL and 4.51 ng/mL and 8.51 ng/mL
Analyte Concentration in Lung ([1]; Group 2, 3 mg/kg QD, 8h, individual animals, LLOQ 10 ng/g): 138 ng/g and 45.1 ng/g and 85.1 ng/g
Analyte Concentration in Tumor ([1]; Group 2, 3 mg/kg QD, 8h, individual animals, dilution factor 10): 514 ng/g and 129 ng/g and 166 ng/g
Analyte Concentration in Tumor Homogenate ([1]; Group 2, 3 mg/kg QD, 24h, individual animals): 3.37 ng/mL and 2.3 ng/mL and 5.48 ng/mL
Analyte Concentration in Lung Homogenate ([1]; Group 2, 3 mg/kg QD, 24h, individual animals, LLOQ 1 ng/mL): BQL
Analyte Concentration in Lung ([1]; Group 2, 3 mg/kg QD, 24h, individual animals, LLOQ 10 ng/g): BQL
Analyte Concentration in Tumor ([1]; Group 2, 3 mg/kg QD, 24h, individual animals, dilution factor 10): 33.7 ng/g and 23 ng/g and 54.8 ng/g
Analyte Concentration in Tumor Homogenate ([1]; Group 3, 1.5 mg/kg QD, 8h, individual animals): 19.2 ng/mL and 22.1 ng/mL
Analyte Concentration in Lung Homogenate ([1]; Group 3, 1.5 mg/kg QD, 8h, individual animals, LLOQ 1 ng/mL): 6.31 ng/mL and 9.86 ng/mL
Analyte Concentration in Lung ([1]; Group 3, 1.5 mg/kg QD, 8h, individual animals, LLOQ 10 ng/g): 63.1 ng/g and 98.6 ng/g
Analyte Concentration in Tumor ([1]; Group 3, 1.5 mg/kg QD, 8h, individual animals, dilution factor 10): 192 ng/g and 221 ng/g
Analyte Concentration in Tumor Homogenate ([1]; Group 3, 1.5 mg/kg QD, 24h, individual animals): 2.34 ng/mL and 1.67 ng/mL
Analyte Concentration in Lung Homogenate ([1]; Group 3, 1.5 mg/kg QD, 24h, individual animals, LLOQ 1 ng/mL): BQL
Analyte Concentration in Lung ([1]; Group 3, 1.5 mg/kg QD, 24h, individual animals, LLOQ 10 ng/g): BQL
Analyte Concentration in Tumor ([1]; Group 3, 1.5 mg/kg QD, 24h, individual animals, dilution factor 10): 23.4 ng/g and 16.7 ng/g
Analyte Concentration in Tumor Homogenate ([1]; Group 4, 3 mg/kg Q2D, 8h, individual animals): 82.3 ng/mL and 21.5 ng/mL and 23.8 ng/mL
Analyte Concentration in Lung Homogenate ([1]; Group 4, 3 mg/kg Q2D, 8h, individual animals, LLOQ 1 ng/mL): 49.2 ng/mL and 8.34 ng/mL and 15.8 ng/mL
Analyte Concentration in Lung ([1]; Group 4, 3 mg/kg Q2D, 8h, individual animals, LLOQ 10 ng/g): 492 ng/g and 83.4 ng/g and 158 ng/g
Analyte Concentration in Tumor ([1]; Group 4, 3 mg/kg Q2D, 8h, individual animals, dilution factor 10): 823 ng/g and 215 ng/g and 238 ng/g
Analyte Concentration in Tumor Homogenate ([1]; Group 4, 3 mg/kg Q2D, 24h, individual animals): 6.96 ng/mL and 4.06 ng/mL and 14.6 ng/mL
Analyte Concentration in Lung Homogenate ([1]; Group 4, 3 mg/kg Q2D, 24h, individual animals, LLOQ 1 ng/mL): 6.96 ng/mL and BQL and 2.42 ng/mL
Analyte Concentration in Lung ([1]; Group 4, 3 mg/kg Q2D, 24h, individual animals, LLOQ 10 ng/g): 69.6 ng/g and BQL and 24.2 ng/g
Analyte Concentration in Tumor ([1]; Group 4, 3 mg/kg Q2D, 24h, individual animals, dilution factor 10): 69.6 ng/g and 40.6 ng/g and 146 ng/g
penetration into the lungs and SCLC tumors ([1]; H526 xenograft model, oral 3 mg/kg daily for 21 days): good penetration into the lungs and SCLC tumors
concentration at 8 h ([1]; lung homogenate, 1.5 mg/kg, Group 3, 1.5 mg/kg QD, 8h, individual animals, LLOQ 1 ng/mL, read-out: Analyte Concentration in Lung Homogenate): 5.65 ng/mL
concentration at 24 h ([1]; lung homogenate, 3 mg/kg, Group 2, 3 mg/kg QD, 24h, individual animals, LLOQ 1 ng/mL, read-out: Analyte Concentration in Lung Homogenate): 1.12 ng/mL
concentration at 8 h ([1]; lung, 1.5 mg/kg, Group 3, 1.5 mg/kg QD, 8h, individual animals, LLOQ 10 ng/g, read-out: Analyte Concentration in Lung): 56.5 ng/g
concentration at 8 h ([1]; lung, 1.5 mg/kg, Group 3, 1.5 mg/kg QD, 8h, mean, read-out: Mean Concentration in Lung): 72.7 ng/g
concentration at 8 h ([1]; lung, 3 mg/kg, Group 2, 3 mg/kg QD, 8h, mean, read-out: Mean Concentration in Lung): 89.4 ng/g
concentration at 24 h ([1]; lung, 3 mg/kg, Group 2, 3 mg/kg QD, 24h, individual animals, LLOQ 10 ng/g, read-out: Analyte Concentration in Lung): 11.2 ng/g
concentration at 8 h ([1]; lung, 3 mg/kg, Group 4, 3 mg/kg Q2D, 8h, mean, read-out: Mean Concentration in Lung): 244 ng/g
concentration at 24 h ([1]; lung, 3 mg/kg, Group 4, 3 mg/kg Q2D, 24h, mean, read-out: Mean Concentration in Lung): 46.9 ng/g
concentration at 8 h ([1]; tumor homogenate, 1.5 mg/kg, Group 3, 1.5 mg/kg QD, 8h, individual animals, read-out: Analyte Concentration in Tumor Homogenate): 14.3 ng/mL
concentration at 24 h ([1]; tumor homogenate, 1.5 mg/kg, Group 3, 1.5 mg/kg QD, 24h, individual animals, read-out: Analyte Concentration in Tumor Homogenate): 2.06 ng/mL
concentration at 8 h ([1]; tumor, 1.5 mg/kg, Group 3, 1.5 mg/kg QD, 8h, individual animals, dilution factor 10, read-out: Analyte Concentration in Tumor): 143 ng/g
concentration at 8 h ([1]; tumor, 1.5 mg/kg, Group 3, 1.5 mg/kg QD, 8h, mean, read-out: Mean Concentration in Tumor): 185 ng/g
concentration at 24 h ([1]; tumor, 1.5 mg/kg, Group 3, 1.5 mg/kg QD, 24h, individual animals, dilution factor 10, read-out: Analyte Concentration in Tumor): 20.6 ng/g
concentration at 24 h ([1]; tumor, 1.5 mg/kg, Group 3, 1.5 mg/kg QD, 24h, mean, read-out: Mean Concentration in Tumor): 20.2 ng/g
concentration at 8 h ([1]; tumor, 3 mg/kg, Group 2, 3 mg/kg QD, 8h, mean, read-out: Mean Concentration in Tumor): 270 ng/g
concentration at 24 h ([1]; tumor, 3 mg/kg, Group 2, 3 mg/kg QD, 24h, mean, read-out: Mean Concentration in Tumor): 37.2 ng/g
concentration at 8 h ([1]; tumor, 3 mg/kg, Group 4, 3 mg/kg Q2D, 8h, mean, read-out: Mean Concentration in Tumor): 425 ng/g
concentration at 24 h ([1]; tumor, 3 mg/kg, Group 4, 3 mg/kg Q2D, 24h, mean, read-out: Mean Concentration in Tumor): 85.4 ng/g

— paper PMC7156724, “Potent BRD4 inhibitor suppresses cancer cell-macrophage interaction” (Nature Communications, 2020)
